Results: patent publication US20090012061A1, “A Method of Treating Cancer” (priority 2004, published 2009)
pIC50: −log10 of the molar value. Several values for one entry are separate records, joined by “and”; a condition that tells them apart may be missing. Equal entries are not always repeated. Where two headings read alike, the source gives them in different places.

Assays:
[1] = target: T1, human KSP motor domain (KSP(367H)) (Homo sapiens, UniProt P52732); assay: Kinesin ATPase in vitro assay (KSP ATPase, quinaldine red/ammonium molybdate phosphate detection); assay type: biochemical; conditions: for pIC50: read-out: KSP ATPase IC50
T1 construct: were used to amplify the motor domain and the neck linker region; made in house; host or cells: E. coli BL21 (DE3), pRSETa
T1 sequence (P52732 18-359 limits assumed): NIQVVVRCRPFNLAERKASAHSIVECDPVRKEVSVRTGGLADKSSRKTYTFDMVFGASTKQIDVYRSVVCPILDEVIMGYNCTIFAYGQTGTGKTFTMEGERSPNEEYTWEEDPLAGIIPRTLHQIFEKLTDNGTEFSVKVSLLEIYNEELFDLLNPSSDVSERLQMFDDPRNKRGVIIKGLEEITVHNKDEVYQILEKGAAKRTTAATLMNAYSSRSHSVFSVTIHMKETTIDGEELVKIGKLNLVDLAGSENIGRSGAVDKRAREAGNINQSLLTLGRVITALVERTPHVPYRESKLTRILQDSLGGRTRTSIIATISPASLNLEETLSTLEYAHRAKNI
Description: Plasmids for the expression of the human KSP motor domain construct were cloned by PCR using a pBluescript full length human KSP construct (Blangy et al., Cell, vol. 83, pp 1159-1169, 1995) as a template. The N-terminal primer 5′-[…] (SEQ.ID.NO.: 1) and the C-terminal primer 5′-[…] […] (SEQ.ID.NO.: 2) were used to amplify the motor domain and the neck linker region. The PCR products were digested with AseI and XhoI, ligated into the NdeI/XhoI digestion product of pRSETa (Invitrogen) and transformed into E. coli BL21 (DE3).
Cells were grown at 37° C. to an OD600 of 0.5. After cooling the culture to room temperature expression of KSP was induced with 100 μM IPTG and incubation was continued overnight. Cells were pelleted by centrifugation and washed once with ice-cold PBS. Pellets were flash-frozen and stored −80° C.
Cell pellets were thawed on ice and resuspended in lysis buffer (50 mM K-HEPES, pH 8.0, 250 mM KCl, 0.1% Tween, 10 mM imidazole, 0.5 mM Mg-ATP, 1 mM PMSF, 2 mM benzimidine, 1× complete protease inhibitor cocktail (Roche)). Cell suspensions were incubated with 1 mg/ml lysozyme and 5 mM β-mercaptoethanol on ice for 10 minutes, followed by sonication (3×30 sec). All subsequent procedures were performed at 4° C. Lysates were centrifuged at 40,000×g for 40 minutes. Supernatants were diluted and loaded onto an SP Sepharose column (Phamacia, 5 ml cartridge) in buffer A (50 mM K-HEPES, pH 6.8, 1 mM MgCl2, 1 mM EGTA, 10 μM Mg-ATP, 1 mM DTT) and eluted with a 0 to 750 mM KCl gradient in buffer A. Fractions containing KSP were pooled and incubated with Ni-NTA resin (Qiagen) for one hour. The resin was washed three times with buffer B (Lysis buffer minus PMSF and protease inhibitor cocktail), followed by three 15-minute incubations and washes with buffer B. Finally, the resin was incubated and washed for 15 minutes three times with buffer C (same as buffer B except for pH 6.0) and poured into a column. KSP was eluted with elution buffer (identical to buffer B except for 150 mM KCl and 250 mM imidazole). KSP-containing fractions were pooled, made 10% in sucrose, and stored at −80° C.
Microtubules are prepared from tubulin isolated from bovine brain. Purified tubulin (>97% MAP-free) at 1 mg/ml is polymerized at 37° C. in the presence of 10 μM paclitaxel, 1 mM DTT, 1 mM GTP in BRB80 buffer (80 mM K-PIPES, 1 mM EGTA, 1 mM MgCl2 at pH 6.8). The resulting microtubules are separated from non-polymerized tubulin by ultracentrifugation and removal of the supernatant. The pellet, containing the microtubules, is gently resuspended in 10 μM paclitaxel, 1 mM DTT, 50 μg/ml ampicillin, and 5 μg/ml chloramphenicol in BRB80.
(§1) The kinesin motor domain (20 nM) is incubated with microtubules, ATP (1 mM 1:1 MgCl2: Na-ATP), and compound at 23° C. in buffer containing 80 mM K-HEPES (pH 7.0), 1 mM EGTA, 1 mM DTT, 1 mM MgCl2, and 50 mM KCl. The reaction is terminated by a 2-10 fold dilution with a final buffer composition of 80 mM HEPES and 50 mM EDTA (or, alternately, with a 1:1 addition of reaction volume to stop buffer(1.8M KCl and 50 mM EDTA)). Free phosphate from the ATP hydrolysis reaction is measured via a quinaldine red/ammonium molybdate assay by adding a 1.5 times volume of quench C (e.g., to a mixture of […] reaction volume+40 μl stop buffer is then added 120 μl quench C). Quench A contains 0.1 mg/ml quinaldine red and 0.14% polyvinyl alcohol; quench B contains 12.3 mM ammonium molybdate tetrahydrate in 1.15 M sulfuric acid. Quench C is a 2:1 ratio of quench A:quench B The reaction is incubated for 5-10 minutes at 23° C., and the absorbance of the phospho-molybdate complex is measured at 540 nm.
In order to identify compounds useful in the methods of the instant invention, the assay described above was then performed in the presence (0.5 μM) and absence of microtubules. Compounds that are commercially available are noted by the source and catalog number.

[2] = target: T1, human KSP motor domain (KSP(367H)); assay: Substrate competitive profile by Michaelis-Menton analysis with the KSP ATPase assay; assay type: biochemical; conditions: for Competitive with ATP?: ATP varied between 4 μM and 500 μM, in the presence of 2 μM of microtubules; for Competitive with MT?: microtubules varied between 0.01 μM and 5 μM, in the presence of 1 mM of ATP
Method: as §1
The in vitro substrate competitive profiles of the compounds described in Table 1 below were determined using a Michaelis-Menton analysis with the assay described above, but varying assay concentrations of one of the substrates (ATP or microtubule) in the presence of excess of the second substrate. Thus, the concentration of ATP was varied between 4 μM and 500 μM, in the presence of 2 μM of microtubules. And the concentration of microtubules was varied between 0.01 μM and 5 μM, in the presence of 1 mM of ATP.

[3] = Table 1, kinesin motor domain 20 nM, with microtubules, 1 mM ATP, 23° C.
[4] = Table 2, microtubules absent (basal), [MT] = 0 uM, standard KSP(ADP), read-out: KSP ATPase IC50 (nM) [MT] = 0 uM
[5] = Table 2, microtubules present, [MT] = 0.5 uM, standard KSP(ADP), read-out: KSP ATPase IC50 (nM) [MT] = 0.5 uM

With `CC(C)(C)c1ccc2[nH]c3c(c2c1)CCCC3=O` [Compound 1] the pIC50 [1, 3] was 6.22, the IC50 [1, 4] was over 50000 nM and the IC50 [1, 5] was 619 nM and 685 nM. The “Competitive with ATP?” value [2] was “no” and the “Competitive with MT?” value [2] was “no”.
For `O=C(Nc1nc2ccccc2s1)C(c1ccccc1)c1ccccc1` [Compound 2], the pIC50 [1, 3] was 5.96, the IC50 [1, 4] was over 50000 nM and the IC50 [1, 5] was 1400 nM and 2150 nM. For the same molecule, the “Competitive with ATP?” value [2] was “no” and the “Competitive with MT?” value [2] was “no”.
`O=C(NC(C(=O)c1ccccc1)c1ccccc1)OCc1ccccc1` (centres unmarked) [Compound 3, N-(2-Oxo-1,2-diphenyl-ethyl)-carbamic acid benzyl ester] was tested, and the pIC50 [1, 3] was 5.63, the IC50 [1, 4] was over 50000 nM and the IC50 [1, 5] was 4050 nM and 2940 nM. The “Competitive with ATP?” value [2] was “no” and the “Competitive with MT?” value [2] was “no”.
With `CCCc1cc(N)c2cc(NC(=O)c3ccc(Oc4ccc(Cl)cc4)cc3)ccc2n1` [Compound 4] the pIC50 [1, 3] was 5.49, the IC50 [1, 4] was over 50000 nM and the IC50 [1, 5] was 2550 nM and 3430 nM. For the same molecule, the “Competitive with ATP?” value [2] was “no” and the “Competitive with MT?” value [2] was “no”.
Molecule `Oc1cccc(CC2(Cc3cccc(O)c3)Cc3ccccc3C2)c1` [Compound 5] has a pIC50 [1, 3] of 5.23, an IC50 [1, 4] of over 50000 nM and an IC50 [1, 5] of 7740 nM. The “Competitive with ATP?” value [2] was “no” and the “Competitive with MT?” value [2] was “no”.
`CC(C)(C)c1cccc(NC(=O)Nc2ccc3ccc(O)cc3c2)c1` [Compound 6, N-(3-tert-butylphenyl)-N-(7-hydroxy-2-naphthyl)urea] gave a pIC50 [1, 3] of 5.72, an IC50 [1, 4] of over 50000 nM and an IC50 [1, 5] of 2780 nM. The “Competitive with ATP?” value [2] was “no” and the “Competitive with MT?” value [2] was “no”.
For `Cc1ccc(NC(=O)C(c2ccccc2)c2ccccc2)cc1[N+](=O)[O-]` [Compound 7], the pIC50 [1, 3] was 5.41, the IC50 [1, 4] was over 50000 nM and the IC50 [1, 5] was 3690 nM and 6290 nM. The “Competitive with ATP?” value [2] was “no” and the “Competitive with MT?” value [2] was “no”.
In the case of `C=CCNC(=O)c1cc(-c2ccc(Cl)cc2)n(-c2cc(Cl)ccc2Cl)n1` [Compound 8], the pIC50 [1, 3] was 5.30, the IC50 [1, 4] was over 50000 nM and the IC50 [1, 5] was 3100 nM and 5540 nM. The “Competitive with ATP?” value [2] was “no” and the “Competitive with MT?” value [2] was “no”.
`O=C(Nc1ccc(Br)c(Cl)c1)C(c1ccccc1)c1ccccc1` [Compound 9] gave a pIC50 [1, 3] of 6.16, an IC50 [1, 4] of over 50000 nM and an IC50 [1, 5] of 647 nM. For the same molecule, the “Competitive with ATP?” value [2] was “no” and the “Competitive with MT?” value [2] was “no”.
With `Cc1cc2ncn(CC(O)COc3ccc(I)cc3)c2cc1C` (centres unmarked) [Compound 10] the pIC50 [1, 3] was 5.32, the IC50 [1, 4] was over 50000 nM and the IC50 [1, 5] was 5040 nM. For the same molecule, the “Competitive with ATP?” value [2] was “no” and the “Competitive with MT?” value [2] was “no”.
For `Cc1nn(C(=S)NCc2ccccc2)c2c1[C@H]1[C@@H](C2)C1(C)C` [Compound 11], the pIC50 [1, 3] was 5.91, the IC50 [1, 4] was over 50000 nM and the IC50 [1, 5] was 1820 nM and 1360 nM. For the same molecule, the “Competitive with ATP?” value [2] was “no” and the “Competitive with MT?” value [2] was “no”.
Work on `CCOC(=O)CSc1nc(C23CC4CC(CC(C4)C2)C3)ccc1C#N` [Compound 12] yielded a pIC50 [1, 3] of 6.25, an IC50 [1, 4] of over 50000 nM and an IC50 [1, 5] of 1150 nM. The “Competitive with ATP?” value [2] was “no”.
For `O=C(c1cc([N+](=O)[O-])ccc1Cl)N1c2ccccc2Sc2ccccc21` [Compound 13], the pIC50 [1, 3] was 6.06, the IC50 [1, 4] was over 50000 nM and the IC50 [1, 5] was 2530 nM and 4520 nM. For the same molecule, the “Competitive with ATP?” value [2] was “no” and the “Competitive with MT?” value [2] was “no”.
With `CCN1C(=O)C(O)(c2ccccc2)c2cc(Br)ccc21` (centres unmarked) [Compound 14] the IC50 ([1]; KSP ATPase IC50 (nM) [MT] = 0 uM, Table 2, microtubules absent (basal), [MT] = 0 uM, standard KSP(ADP)) was over 50000 nM, the IC50 ([1]; KSP ATPase IC50 (nM) [MT] = 0.5 uM, Table 2, microtubules present, [MT] = 0.5 uM, standard KSP(ADP)) was 8920 nM and 4600 nM and the IC50 ([1]; KSP ATPase IC50 (nM), Table 1, kinesin motor domain 20 nM, with microtubules, 1 mM ATP, 23° C.) was 3920 nM. For the same molecule, the “Competitive with ATP?” value [2] was “no” and the “Competitive with MT?” value [2] was “no”.
With `CSc1ccc(C(=O)N2CCCN(CC(=O)Nc3ccc(F)cc3)CC2)s1` [Compound 15] the pIC50 [1, 3] was 5.15 and 5.17, the IC50 [1, 4] was over 50000 nM and the IC50 [1, 5] was 8880 nM. For the same molecule, the “Competitive with ATP?” value [2] was “no” and the “Competitive with MT?” value [2] was “no”.
